Data: patent publication US20250179059A1 (The Regents of the University of California, priority 2021, published 2025)

Molecular target: T1, human BRD4 bromodomain II (Homo sapiens, UniProt O60885)
T1 construct: human BRD4 bromodomain II [based on Genbank NM_058243, residues 349-460]; host or cells: E. coli
Test: Bromodomain binding assay (AlphaScreen), BRD4 BDII
Conditions: AlphaScreen assay, Table C2; read-out: BRD4 BDII IC50
Procedure, shortened: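 First, His6-tagged BRD4 bromodomain (BDI residues 44-170 or BDII residues 349-460) is incubated with compound for 30 min at room temperature. Next the biotinylated H4 peptide is added for 30 min, then donor and acceptor beads, with 60 min in the dark before AlphaScreen reading and IC50 fitting.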

| IC50 | SMILES |
| --- | --- |
| 10 to 100 nM | CC(=O)Nc1c(F)cc(-c2cccc(-c3cccc(N4CCNCC4)c3)c2O)cc1OCC1CC1 [Example 184, N-(3-(cyclopropylmethoxy)-5-fluoro-2′-hydroxy-3″-(piperazin-1-yl)-[1,1′:3′,1″-terphenyl]-4-yl)acetamide] |
| > 100 nM | CC(=O)N1CCc2cc(-c3cccc(-c4cc(N5CCNCC5)no4)c3O)ccc21 [Example 31, 1-(5-(2-Hydroxy-3-(3-(piperazin-1-yl)isoxazol-5-yl)phenyl)indolin-1-yl)ethanone 2,2,2-trifluoroacetate] |
| > 100 nM | CC(=O)Nc1ccc(-c2cccc(-c3cccc(-c4nn[nH]n4)c3)c2O)cc1F [Example 227, N-(3-fluoro-2′-hydroxy-3″-(2H-tetrazol-5-yl)-[1,1′:3′,1″-terphenyl]-4-yl)acetamide] |
| > 100 nM | CC(=O)Nc1ccc(-c2cccc(-c3cc(N4CCN(C(C)=O)CC4)no3)c2O)cc1 [Example 57, N-(3′-(3-(4-Acetylpiperazin-1-yl)isoxazol-5-yl)-2′-hydroxy-[1,1′-biphenyl]-4-yl)acetamide] |
| 10 to 100 nM | CC(=O)Nc1ccc(-c2cccc(-c3cc(F)cc(N4CCNCC4)c3)c2O)cc1F [Example 178, N-(3,3″-difluoro-2′-hydroxy-5″-(piperazin-1-yl)-[1,1′:3′,1″-terphenyl]-4-yl)acetamide] |
| > 100 nM | CC(=O)Nc1ccc(-c2cccc(-c3cc(N4CCNCC4)no3)c2O)cc1OC(F)F [Example 26, N-(3-(Difluoromethoxy)-2′-hydroxy-3′-(3-(piperazin-1-yl)isoxazol-5-yl)-[1,1′-biphenyl]-4-yl)acetamide 2,2,2-trifluoroacetate] |
| > 100 nM | CC(=O)Nc1ccc(-c2cccc(-c3ccc(OC4CCCC4)cc3)c2O)cc1F [Example 118, N-(4″-(Cyclopentyloxy)-3-fluoro-2′-hydroxy-[1,1′:3′,1″-terphenyl]-4-yl)acetamide] |
| > 100 nM | CC(=O)Nc1ccc(-c2cccc(-c3ccc(NC(C)=O)nc3)c2O)cn1 [Example 40, N,N′-(5,5′-(2-Hydroxy-1,3-phenylene)bis(pyridine-5,2-diyl))diacetamide] |
| > 100 nM | CC(=O)Nc1ccc(-c2cccc(-c3cnn(-c4ccccc4)c3)c2O)cc1F [Example 35, N-(3-Fluoro-2′-hydroxy-3′-(1-phenyl-1H-pyrazol-4-yl)-[1,1′-biphenyl]-4-yl) acetamide] |
| > 100 nM | CC(=O)Nc1ccc(-c2cccc(-c3ccnc(N4CC(O)C4)c3)c2O)cc1F [Example 225, N-(3-fluoro-2′-hydroxy-3′-(2-(3-hydroxyazetidin-1-yl)pyridin-4-yl)-[1,1′-biphenyl]-4-yl)acetamide] |
| > 100 nM | CC(=O)Nc1ccc(-c2cccc(-c3ccc(NC(C)=O)c(N4CCNCC4)c3)c2O)cc1N1CCNCC1 [Example 185, N,N′-(2′-hydroxy-3,3″-di(piperazin-1-yl)-[1,1′:3′,1″-terphenyl]-4,4″-diyl)diacetamide] |
| > 100 nM | CC(=O)Nc1ccc(-c2cccc(-c3cc(N4CCNCC4)ccc3C)c2O)cc1F [Example 181, N-(3-fluoro-2′-hydroxy-2″-methyl-5″-(piperazin-1-yl)-[1,1′:3′,1″-terphenyl]-4-yl)acetamide] |
| 10 to 100 nM | CC(=O)Nc1ccc(-c2cccc(-c3ccnnc3)c2O)cc1F [Example 102, N-(3-Fluoro-2′-hydroxy-3′-(pyridazin-4-yl)-[1,1′-biphenyl]-4-yl)acetamide] |
| > 100 nM | CC(=O)Nc1ccc(-c2cc(F)cc(-c3cnn(C4CCN(C)CC4)c3)c2O)cc1F [Example 84, N-(3,5′-Difluoro-2′-hydroxy-3′-(1-(1-methylpiperidin-4-yl)-1H-pyrazol-4-yl)-[1,1′-biphenyl]-4-yl)acetamide] |
| > 100 nM | CC(=O)Nc1ccc(-c2cccc(-c3cnc4c(ccn4C)c3)c2O)cc1F [Example 125, N-(3-Fluoro-2′-hydroxy-3′-(1-methyl-1H-pyrrolo[2,3-b]pyridin-5-yl)-[1,1′-biphenyl]-4-yl)acetamide] |
| > 100 nM | CC(=O)Nc1ccc(-c2cccc(-c3cc(N4CCNCC4)n(C)n3)c2O)cc1F [Example 160, N-(3-fluoro-2′-hydroxy-3′-(1-methyl-5-(piperazin-1-yl)-1H-pyrazol-3-yl)-[1,1′-biphenyl]-4-yl)acetamide] |
| 1 to 10 nM | O=C1CCCN1c1ccc(-c2cc(F)cc(-c3ccnc(N4CCNCC4)c3)c2O)cc1F [Example 216, 1-(3,5′-Difluoro-2′-hydroxy-3′-(2-(piperazin-1-yl)pyridin-4-yl)-[1,1′-biphenyl]-4-yl)pyrrolidin-2-one] |
| > 100 nM | CC(=O)Nc1ccc(-c2cccc(-c3cnn(C)c3)c2O)cc1 [Example 13, N-(2′-Hydroxy-3′-(1-methyl-1H-pyrazol-4-yl)-[1,1′-biphenyl]-4-yl)acetamide] |
| 10 to 100 nM | CC(=O)Nc1ccc(-c2cccc(-c3cccc(N4CCC5(CCNC5)CC4)c3)c2O)cc1F [Example 192, N-(3-fluoro-2′-hydroxy-3″-(2,8-diazaspiro[4.5]decan-8-yl)-[1,1′:3′,1″-terphenyl]-4-yl)acetamide] |
| 10 to 100 nM | CC(=O)Nc1ccc(-c2cccc(-c3cccc(N4CCC(N)C4)c3)c2O)cc1F (stereo not drawn) [Example 177, N-(3″-(3-aminopyrrolidin-1-yl)-3-fluoro-2′-hydroxy-[1,1′:3′,1″-terphenyl]-4-yl)acetamide] |

| IC50 | SMILES |
| --- | --- |
| > 100 nM | CC(=O)Nc1ccc(-c2cccc(-c3ccccc3)c2O)cc1 [Example 12, N-(2′-Hydroxy-[1,1′:3′,1″-terphenyl]-4-yl)acetamide] |
| 10 to 100 nM | CC(=O)Nc1ccc(-c2cccc(-c3cccc(-c4c[nH]cn4)c3)c2O)cc1F [Example 229, N-(3-fluoro-2′-hydroxy-3″-(1H-imidazol-4-yl)-[1,1′:3′,1″-terphenyl]-4-yl)acetamide] |
| > 100 nM | CCc1cc(-c2cccc(-c3ccc(NC(C)=O)c(F)c3)c2O)ccc1NC(C)=O [Example 88, N,N′-(3-Ethyl-3″-fluoro-2′-hydroxy-[1,1′:3′,1″-terphenyl]-4,4″-diyl)diacetamide] |
| 10 to 100 nM | CC(=O)Nc1ccc(-c2cccc(-c3cnc(N4CCNCC4)o3)c2O)cc1F [Example 112, N-(3-Fluoro-2′-hydroxy-3′-(2-(piperazin-1-yl)oxazol-5-yl)-[1,1′-biphenyl]-4-yl)acetamide] |
| 10 to 100 nM | CC(=O)Nc1ccc(-c2cccc(-c3ccc4cnccc4c3)c2O)cc1F [Example 145, N-(3-fluoro-2′-hydroxy-3′-(isoquinolin-6-yl)-[1,1′-biphenyl]-4-yl)acetamide] |
| 10 to 100 nM | CC(=O)Nc1ccc(-c2cccc(-c3cccc(N4CCN[C@@H](C)C4)c3)c2O)cc1F [Example 179, (S)-N-(3-fluoro-2′-hydroxy-3″-(3-methylpiperazin-1-yl)-[1,1′:3′,1″-terphenyl]-4-yl)acetamide] |
| > 100 nM | CC(=O)Nc1ccc(-c2cccc(-c3cc(N4CCNCC4)sn3)c2O)cc1 [Example 8, N-(2′-Hydroxy-3′-(5-(piperazin-1-yl)isothiazol-3-yl)-[1,1′-biphenyl]-4-yl)acetamide] |
| > 100 nM | CC(=O)Nc1ccc(-c2cccc(-c3ccc4c(c3)CCCN4C(C)=O)c2O)cc1F [Example 101, N-(3′-(1-Acetyl-1,2,3,4-tetrahydroquinolin-6-yl)-3-fluoro-2′-hydroxy-[1,1′-biphenyl]-4-yl)acetamide] |
| > 100 nM | O=C1OCCN1c1ccc(-c2cccc(-c3cc(N4CCNCC4)no3)c2O)cc1 [Example 37, 3-(2′-Hydroxy-3′-(3-(piperazin-1-yl)isoxazol-5-yl)-[1,1′-biphenyl]-4-yl)oxazolidin-2-one 2,2,2-trifluoroacetate] |
| 10 to 100 nM | CC(=O)Nc1ccc(-c2cccc(-c3cncnc3)c2O)cc1F [Example 103, N-(3-Fluoro-2′-hydroxy-3′-(pyrimidin-5-yl)-[1,1′-biphenyl]-4-yl)acetamide] |
| > 100 nM | CC(=O)Nc1ccc(-c2cccc(-c3ccc(NC(C)=O)c(F)c3)c2O)cc1F [Example 33, N,N′-(3,3″-Difluoro-2′-hydroxy-[1,1′:3′,1″-terphenyl]-4,4″-diyl)diacetamide] |
| 1 to 10 nM | CC(=O)Nc1ccc(-c2cccc(-c3ccnc(C(=O)O)c3)c2O)cc1F [Example 205, 4-(4′-acetamido-3′-fluoro-2-hydroxy-[1,1′-biphenyl]-3-yl)picolinic acid] |
| > 100 nM | CCOC(=O)c1ccc(-c2cccc(-c3ccc(NC(C)=O)c(F)c3)c2O)cc1 [Example 69, Ethyl 4″-acetamido-3″-fluoro-2′-hydroxy-[1,1′:3′,1″-terphenyl]-4-carboxylate] |
| > 100 nM | CC(=O)Nc1ccc(-c2cccc(-c3cccc(OC4CCCC4)c3)c2O)cc1F [Example 115, N-(3″-(Cyclopentyloxy)-3-fluoro-2′-hydroxy-[1,1′:3′,1″-terphenyl]-4-yl)acetamide] |
| > 100 nM | CC(=O)Nc1ccc(-c2cccc(-c3ccc(NC(C)=O)c(OC(C)C)c3)c2O)cc1F [Example 87, N,N′-(3-Fluoro-2′-hydroxy-3″-isopropoxy-[1,1′:3′,1″-terphenyl]-4,4″-diyl)diacetamide] |
| > 100 nM | CC(=O)Nc1ccc(-c2cccc(-c3nnc(N4CCNCC4)[nH]3)c2O)cc1F [Example 148, N-(3-fluoro-2′-hydroxy-3′-(5-(piperazin-1-yl)-4H-1,2,4-triazol-3-yl)-[1,1′-biphenyl]-4-yl)acetamide] |
| 1 to 10 nM | O=C1NCCN1c1ccc(-c2cccc(-c3cccc(N4CCNCC4)c3)c2O)cc1F [Example 197, 1-(3-fluoro-2′-hydroxy-3″-(piperazin-1-yl)-[1,1′:3′,1″-terphenyl]-4-yl)imidazolidin-2-one] |
| > 100 nM | CC(=O)Nc1ccc(-c2cccc(-c3ccc4c(ccn4C)c3)c2O)cc1F [Example 130, N-(3-Fluoro-2′-hydroxy-3′-(1-methyl-1H-indol-5-yl)-[1,1′-biphenyl]-4-yl)acetamide] |
| > 100 nM | CC(=O)Nc1ccc(-c2cccc(-c3cccc(C(C)C)c3)c2O)cc1F [Example 75, N-(3-Fluoro-2′-hydroxy-3″-isopropyl-[1,1′:3′,1″-terphenyl]-4-yl)acetamide] |
